Reference: patent US7211566B2 (Universite De Sherbrooke, priority 2003, dated 2007)
Blank lines part the entries; values can stand above or below the molecule they belong to. Ends that are not written are not given here.

What was measured:
aminopeptidase M (AmM) = molecular target: T1, aminopeptidase M (AmM) (Homo sapiens, UniProt P15144); test: In vitro metabolic stability against human plasma AmM; format: in vitro ADME; details: male, human plasma as source of aminopeptidase M, pH 7.5, peptide 200 μM, 60 min incubation, mean ± SEM of 3, read-out: Peptide metabolism (%) Human plasma AmM
T1 construct: incubated for 60 min with 50 μl of human plasma; from tissue; host or cells: human plasma from heparinized blood of healthy male volunteers
T1 sequence (P15144 whole entry): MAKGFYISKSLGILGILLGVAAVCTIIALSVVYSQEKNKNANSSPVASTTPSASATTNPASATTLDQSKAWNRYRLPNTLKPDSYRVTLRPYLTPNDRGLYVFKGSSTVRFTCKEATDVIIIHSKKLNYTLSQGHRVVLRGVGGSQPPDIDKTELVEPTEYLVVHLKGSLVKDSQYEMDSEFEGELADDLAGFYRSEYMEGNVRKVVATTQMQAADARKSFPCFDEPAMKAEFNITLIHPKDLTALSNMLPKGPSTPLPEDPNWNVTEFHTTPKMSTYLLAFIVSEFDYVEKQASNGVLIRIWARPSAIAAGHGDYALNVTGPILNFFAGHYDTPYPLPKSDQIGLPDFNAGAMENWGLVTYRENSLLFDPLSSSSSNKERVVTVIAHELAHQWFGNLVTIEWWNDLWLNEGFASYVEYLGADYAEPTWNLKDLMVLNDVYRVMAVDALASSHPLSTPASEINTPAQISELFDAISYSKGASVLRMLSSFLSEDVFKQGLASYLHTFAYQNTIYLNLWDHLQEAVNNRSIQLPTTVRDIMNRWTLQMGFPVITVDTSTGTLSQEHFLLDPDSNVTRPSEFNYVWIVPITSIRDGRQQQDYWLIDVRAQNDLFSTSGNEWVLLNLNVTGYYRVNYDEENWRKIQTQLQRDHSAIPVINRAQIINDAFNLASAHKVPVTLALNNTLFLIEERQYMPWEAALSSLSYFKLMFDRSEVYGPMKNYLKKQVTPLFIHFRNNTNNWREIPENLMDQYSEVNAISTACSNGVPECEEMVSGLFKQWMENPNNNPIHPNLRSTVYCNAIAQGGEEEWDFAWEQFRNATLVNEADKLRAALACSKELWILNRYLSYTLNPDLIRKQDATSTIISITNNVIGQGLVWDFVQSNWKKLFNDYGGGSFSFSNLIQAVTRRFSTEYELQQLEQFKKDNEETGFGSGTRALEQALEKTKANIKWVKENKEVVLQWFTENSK
Description: (§1) These assays were performed using three enzyme preparations: purified angiotensin converting enzyme (ACE; from rabbit lung), human plasma as a, source of aminopeptidase M (AmM) and human platelets as a source of aminopeptidase P (AmP).
Human plasma AmM was prepared as previously described (Gobeil et al., 1999, Hypertension, 33, 823–829). Blood (5 ml) was withdrawn from healthy normotensive male Caucasian volunteers and put into heparinized tube (200 U). Blood samples were centrifuged at 1500 rpm for 15 min in a refrigerated tabletop centrifuge. The peptide antagonists (200 μM) were placed in a PBS buffer (50 mM, pH 7.5, containing 300 mM NaCl) and incubated for 60 min with 50 μl of human plasma (total volume of the medium, 375 μl). Immersing samples into boiling water and then cooling them on ice stopped the hydrolysis reaction. Control experiments have shown that ≈70% of the kininase activity that is present in the human plasma is abolished by amastatin (1 μM) and that the incubation of Lys-[Leu^8]desArg^9BK with this enzymatic preparation led to the production of [Leu^8]desArg^9BK as detected by electrospray mass spectrometry.

[1] = molecular target: T2, angiotensin converting enzyme (ACE) (Oryctolagus cuniculus, UniProt P12822); test: In vitro metabolic stability against purified rabbit lung ACE; format: in vitro ADME; details: purified angiotensin converting enzyme from rabbit lung, pH 7.5, peptide 200 μM, 60 min at 37° C., mean ± SEM of 3, read-out: Peptide metabolism (%) Rabbit lung ACE
T2 construct: In Vitro Biochemical Stability Assays Against Purified Native Enzymes; purchased Sigma, St. Louis, Mo; host or cells: rabbit lung
T2 sequence (P12822 34-1310): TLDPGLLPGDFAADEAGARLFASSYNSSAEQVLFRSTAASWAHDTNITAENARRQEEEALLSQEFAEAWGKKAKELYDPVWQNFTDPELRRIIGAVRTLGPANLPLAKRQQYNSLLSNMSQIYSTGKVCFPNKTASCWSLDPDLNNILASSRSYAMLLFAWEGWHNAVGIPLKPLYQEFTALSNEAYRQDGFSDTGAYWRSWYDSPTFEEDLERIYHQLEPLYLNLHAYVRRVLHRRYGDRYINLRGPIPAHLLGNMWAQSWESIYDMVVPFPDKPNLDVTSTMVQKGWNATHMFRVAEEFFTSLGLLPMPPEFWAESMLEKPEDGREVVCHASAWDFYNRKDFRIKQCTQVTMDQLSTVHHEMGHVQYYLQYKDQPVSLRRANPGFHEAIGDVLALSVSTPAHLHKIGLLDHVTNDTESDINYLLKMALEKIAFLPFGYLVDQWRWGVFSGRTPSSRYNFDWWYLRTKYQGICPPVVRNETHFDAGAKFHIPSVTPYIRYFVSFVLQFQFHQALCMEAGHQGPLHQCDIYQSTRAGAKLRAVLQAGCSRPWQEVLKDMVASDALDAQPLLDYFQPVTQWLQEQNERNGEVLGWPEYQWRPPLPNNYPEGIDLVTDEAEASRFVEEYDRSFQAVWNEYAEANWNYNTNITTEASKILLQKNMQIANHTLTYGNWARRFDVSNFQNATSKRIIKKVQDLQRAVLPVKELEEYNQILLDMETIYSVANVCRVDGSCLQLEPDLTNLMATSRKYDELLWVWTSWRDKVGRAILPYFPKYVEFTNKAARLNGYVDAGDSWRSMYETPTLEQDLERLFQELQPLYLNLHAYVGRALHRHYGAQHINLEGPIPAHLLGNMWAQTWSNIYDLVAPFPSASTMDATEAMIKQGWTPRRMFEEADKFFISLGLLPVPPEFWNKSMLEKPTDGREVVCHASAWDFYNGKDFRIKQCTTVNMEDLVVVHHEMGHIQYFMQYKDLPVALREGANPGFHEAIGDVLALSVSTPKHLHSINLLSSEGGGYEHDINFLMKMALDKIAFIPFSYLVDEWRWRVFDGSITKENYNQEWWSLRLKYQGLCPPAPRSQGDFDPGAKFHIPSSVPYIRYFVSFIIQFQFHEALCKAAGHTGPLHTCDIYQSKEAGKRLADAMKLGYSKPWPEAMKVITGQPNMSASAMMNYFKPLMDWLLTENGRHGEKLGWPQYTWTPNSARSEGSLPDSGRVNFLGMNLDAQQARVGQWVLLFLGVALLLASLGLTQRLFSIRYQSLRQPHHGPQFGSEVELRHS
Description: as §1
Purified ACE from rabbit lungs (Sigma, St. Louis, Mo.) was dissolved in PBS (50 mM, pH 7.5, containing 300 mM NaCl and 10 μM ZnCl2; the final concentration of ACE was 45 μg/ml). Each of the peptide antagonists (200 μM) was incubated for 60 min at 37° C. with ACE (8.5 μl) (total volume medium, 187.5 μl). The enzymatic reaction was then terminated by boiling.
The experimental protocol for the measurement of ACE activity has been described elsewhere (Drapeau et a). 1993, J Pharmacol Exp Ther 266, 192–198; Gobeil et al., 1996, supra).

aminopeptidase P (AmP) = molecular target: T3, aminopeptidase P (AmP) (Homo sapiens, UniProt Q9NQW7); test: In vitro metabolic stability against human platelets AmP; format: in vitro ADME; details: mean ± SEM of 3 experiments
T3 construct: from tissue; host or cells: human platelets, freeze-thawed and sonicated, 43 000 x g supernatant
T3 sequence (Q9NQW7 whole entry): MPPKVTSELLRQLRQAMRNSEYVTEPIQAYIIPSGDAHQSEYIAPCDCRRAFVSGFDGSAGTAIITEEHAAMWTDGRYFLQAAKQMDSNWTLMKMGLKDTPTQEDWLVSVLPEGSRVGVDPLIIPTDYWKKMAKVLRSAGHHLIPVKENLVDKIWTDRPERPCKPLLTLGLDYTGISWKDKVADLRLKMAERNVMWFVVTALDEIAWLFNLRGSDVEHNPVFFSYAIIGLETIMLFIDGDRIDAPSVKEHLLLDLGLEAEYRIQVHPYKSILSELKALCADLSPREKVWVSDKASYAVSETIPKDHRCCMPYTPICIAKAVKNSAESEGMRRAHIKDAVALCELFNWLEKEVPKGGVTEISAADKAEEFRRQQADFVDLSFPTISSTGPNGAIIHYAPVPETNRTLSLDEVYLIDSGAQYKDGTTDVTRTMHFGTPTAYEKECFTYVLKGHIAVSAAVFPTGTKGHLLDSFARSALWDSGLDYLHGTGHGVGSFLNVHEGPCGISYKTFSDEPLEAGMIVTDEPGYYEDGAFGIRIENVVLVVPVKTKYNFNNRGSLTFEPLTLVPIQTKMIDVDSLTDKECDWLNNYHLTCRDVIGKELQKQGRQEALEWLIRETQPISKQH
Description: as §1
Human platelet AmP was prepared as described by Maggiora et al. (1999, J Med Chem 42, 2394–2402). Human platelets (40 ml) were centrifuged at 250×g for 7 min at room temperature. The resulting supernatant was recentrifuged at 2790×g for 15 min at room temperature. Pellets were collected, resuspended in 40 ml of phosphate-buffered saline (PBS) containing 3.5% of sodium citrate, and then re-centrifuged at 2790×g for 15 min at room temperature. This washing step was repeated. Pellets were resuspended in 4 ml of PBS-sodium citrate, snap-frozen in liquid nitrogen, thawed at 37° C., sonicated briefly, and then centrifuged at 43 000×g for 2 h at 4° C. (Sorvall RC 5B, ss-34 rotor). The resulting supernatant was used for enzyme assays as described in Neugebauer et al. (Neugebauer et al. 2002, supra).

BKB1 receptor [2] = molecular target: T4, BKB1 receptor (Homo sapiens, UniProt P46663); test: Isolated human umbilical vein (hUV) organ bath, antagonist potency pA2; format: cell-based; set-up: the hUV that contains BKB1 and BKB2 receptors; from tissue; host or cells: isolated human umbilical vein (hUV)
T4 sequence (P46663 1-353): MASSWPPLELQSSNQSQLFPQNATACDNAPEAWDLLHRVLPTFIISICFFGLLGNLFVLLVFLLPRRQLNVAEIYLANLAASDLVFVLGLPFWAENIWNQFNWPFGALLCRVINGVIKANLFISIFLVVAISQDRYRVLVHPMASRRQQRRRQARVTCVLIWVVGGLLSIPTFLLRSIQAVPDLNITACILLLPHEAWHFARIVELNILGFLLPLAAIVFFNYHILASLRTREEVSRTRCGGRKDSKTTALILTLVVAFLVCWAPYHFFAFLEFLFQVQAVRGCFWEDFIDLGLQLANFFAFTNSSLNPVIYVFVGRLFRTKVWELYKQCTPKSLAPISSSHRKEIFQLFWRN
Description: (§2) Selected antagonists were tested for activities in three isolated organs: (1) the rabbit aorta (rbA), (2) the human umbilical vein (hUV) and (3) the rabbit jugular vein (rbJV).
(§3) All details regarding the procurements of human umbilical cords and rabbit vessels as well as, the procedures for preparing the isolated organs and the experimental protocols are described in these respective publications: rbA (Rioux et al. 1973, Can J Physiol Pharmacol 51, 114–121); hUV (Gobeil et al. 1996, Br J Pharmacol 118, 289–294), and rbJV (Gaudreau et al. 1981, Can J Physiol Pharmacol 59, 371–379).
(§4) The rabbit jugular vein (a pure BKB2 receptor system) was used to exclude any action of the new compounds on the BKB2 receptor and thus establish their selectivity. All tissues were treated with captopril (1 μM) to prevent the degradation of the peptidic agonists.
(§5) Repeated applications of a single and double concentration of BK (on rbJV,) or of desArg^9BK (rbA and hUV) were made in the absence and in presence of the various peptides to evaluate their apparent affinities as antagonists, in terms of pA2 (-log10 of the molar concentration of antagonist that reduces the effect of a double concentration of agonist to that of a single one) (Schild 1947, Br J Pharmacol 2, 189–206).

BKB1 receptor [3] = molecular target: T5, BKB1 receptor (Oryctolagus cuniculus, UniProt P48748); test: Isolated rabbit aorta (rbA) organ bath, antagonist potency pA2; format: cell-based; details: rabbit aorta without endothelium; mean ± SEM of 4–7 experiments
T5 construct: The rabbit aorta without endothelium (which contains only the BKB1 receptor); from tissue; host or cells: isolated rabbit aorta (rbA) without endothelium
T5 sequence (P48748 1-352): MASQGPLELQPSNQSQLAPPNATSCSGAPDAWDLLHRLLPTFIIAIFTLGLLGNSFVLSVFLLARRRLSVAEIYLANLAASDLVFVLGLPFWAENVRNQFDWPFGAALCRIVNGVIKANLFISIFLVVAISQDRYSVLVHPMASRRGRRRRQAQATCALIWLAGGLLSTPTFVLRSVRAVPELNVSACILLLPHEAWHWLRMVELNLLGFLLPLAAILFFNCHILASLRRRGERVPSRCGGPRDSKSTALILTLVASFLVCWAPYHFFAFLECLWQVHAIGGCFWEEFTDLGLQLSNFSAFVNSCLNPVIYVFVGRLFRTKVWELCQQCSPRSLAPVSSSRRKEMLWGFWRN
Description: as §2, §3
The rabbit aorta without endothelium (which contains only the BKB1 receptor) was used to determine the antagonistic activities of each compound.
as §4, §5

BKB2 receptor = molecular target: T6, BKB2 receptor (Oryctolagus cuniculus, UniProt Q28642); test: Isolated rabbit jugular vein (rbJV) organ bath, antagonist potency pA2; format: cell-based; details: BK as agonist
T6 construct: The rabbit jugular vein (a pure BKB2 receptor system); from tissue; host or cells: isolated rabbit jugular vein (rbJV)
T6 sequence (Q28642 1-367): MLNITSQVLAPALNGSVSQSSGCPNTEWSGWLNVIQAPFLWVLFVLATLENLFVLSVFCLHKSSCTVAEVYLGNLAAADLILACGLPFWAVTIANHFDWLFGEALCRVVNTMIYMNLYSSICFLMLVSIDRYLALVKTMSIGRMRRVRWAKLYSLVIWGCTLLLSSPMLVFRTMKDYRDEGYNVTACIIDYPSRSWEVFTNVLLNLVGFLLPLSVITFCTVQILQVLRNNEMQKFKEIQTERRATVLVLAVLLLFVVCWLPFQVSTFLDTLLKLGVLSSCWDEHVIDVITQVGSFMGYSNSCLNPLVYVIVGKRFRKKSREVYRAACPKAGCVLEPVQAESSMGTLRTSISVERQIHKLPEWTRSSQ
Description: as §2, §3, §4, §5

[4] = human plasma as a source of aminopeptidase M (AmM); details: up to 60 min
[5] = test system: angiotensin converting enzyme (ACE); test: Purified ACE from rabbit lungs (Sigma, St. Louis, Mo.) dissolved in PBS (50 mM, pH 7.5, containing 300 mM NaCl and 10 μM ZnCl2); details: 37° C., up to 60 min
[6] = test system: carboxypeptidases of the M type (CPM); details: cited from earlier work
[7] = test system: carboxypeptidases of the N type (CPN); details: cited from earlier work

Antagonist potencies (pA2) BKB1-R rbA (BKB1 receptor [3]): 8.40 ± 0.12
Antagonist potencies (pA2) BKB2-R rbJV (BKB2 receptor): <6.00
Antagonist potencies (pA2) BKB1-R hUV (BKB1 receptor [2]; human umbilical vein treated with HOE 140, mean ± SEM of 4–7 experiments): 8.49 ± 0.10
Molecule: Ac-Lys-[D-βNal^7, Ile^8] desArg^9BK [Ac-Lys-[D-βNal^7, Ile^8]desArg^9-BK, reference compound]

not cleaved [4]: Peptide metabolism 0 % (60 min)
not cleaved [5]: Peptide metabolism 0 % (60 min)
Molecule: Ac-Lys[Oic^2,(α-Me)Phe^5,D-βNal^7,Ile^8]desArg^9BK

fragment found [4]: [Leu^8]desArg^9BK
cleaved bond [5]: Phe5-Ser6
Molecule: Lys-[Leu^8] desArg^9BK

The remaining lines, values behind:

Molecule: CC(C)C[C@H](NC(=O)[C@@H]1CCCN1C(=O)[C@H](CO)NC(=O)[C@H](Cc1ccccc1)NC(=O)CNC(=O)[C@@H]1CCCN1C(=O)[C@@H]1CCCN1C(=O)[C@H](CCCN=C(N)N)NC(=O)[C@@H](N)CCCCN)C(=O)O [Lys-[Leu^8]desArg^9-BK, Lys-[Leu^8] desArg^9BK, reference compound]
metabolised at 1 h, 200 µM (aminopeptidase M (AmM)): 100%
metabolised at 1 h, 200 µM [1]: 93 ± 3%
Peptide metabolism (%) Human platelets AmP (aminopeptidase P (AmP)): 99 ± 1%
affinity higher than that of [Leu^8]desArg^9BK (BKB1 receptor [2]; BKB1 receptor antagonist affinity, effect of N-terminal Lys): at least 1.5 log units

Molecule: Ac-Orn[Oic^2,Oic^3(α-Me)Phe^5,D-βNal^7,Ile^8]desArg^9BK
Antagonist potencies (pA2) BKB1-R rbA (BKB1 receptor [3]): 8.30 ± 0.08
Antagonist potencies (pA2) BKB2-R rbJV (BKB2 receptor): <6.00

Molecule: RPPGFSPFR
cleaved bond [6]: Phe8-Arg9
cleaved bond [7]: Phe8-Arg9
